{
  "source": "ChEMBL document CHEMBL4619716",
  "about": "“Machine Learning in Mass Spectrometry: A MALDI-TOF MS Approach to Phenotypic Antibacterial Screening” (2020)",
  "note": "The source made the active and inactive calls. The calls are words filed in the database; no cut-off is given here.",
  "data": [
    {"system": "Escherichia coli", "experiment": "Antimicrobial activity against Escherichia coli ATCC 25922 assessed as induction of changes in mass spectral profile of bacteria 1 times MIC uM by MALDI-TOF MS analysis", "assay_type": "functional, organism-based", "values": [
      {"smiles": "CO/N=C(\\C(=O)N[C@@H]1C(=O)N2C(C(=O)O)=C(COC(N)=O)CS[C@H]12)c1ccco1", "Activity": "Active"},
      {"smiles": "CC1(C)S[C@@H]2[C@H](NC(=O)Cc3ccccc3)C(=O)N2[C@H]1C(=O)O", "Activity": "Active"},
      {"smiles": "CN[C@H](CC(C)C)C(=O)N[C@H]1C(=O)N[C@@H](CC(N)=O)C(=O)N[C@H]2C(=O)N[C@H]3C(=O)N[C@H](C(=O)N[C@H](C(=O)O)c4cc(O)cc(O)c4-c4cc3ccc4O)[C@H](O)c3ccc(c(Cl)c3)Oc3cc2cc(c3O[C@@H]2O[C@H](CO)[C@@H](O)[C@H](O)[C@H]2O[C@H]2C[C@](C)(N)[C@H](O)[C@H](C)O2)Oc2ccc(cc2Cl)[C@H]1O", "Activity": "Active"},
      {"smiles": "CC1(C)S[C@@H]2[C@H](NC(=O)[C@H](N)c3ccc(O)cc3)C(=O)N2[C@H]1C(=O)O", "Activity": "Active"},
      {"smiles": "CO/N=C(\\C(=O)N[C@@H]1C(=O)N2C(C(=O)O)=C(COC(C)=O)CS[C@H]12)c1csc(N)n1", "Activity": "Active"}
    ]},
    {"system": "Escherichia coli", "experiment": "Antimicrobial activity against Escherichia coli ATCC 25922 assessed as induction of changes in mass spectral profile of bacteria by measuring decrease in peak at m/z 6320 and increase in peak at m/z 6405 at 1/16 to 1 times MIC uM by MALDI-TOF MS analysis", "assay_type": "functional, organism-based", "values": [
      {"smiles": "CC1(C)S[C@@H]2[C@H](NC(=O)[C@H](N)c3ccc(O)cc3)C(=O)N2[C@H]1C(=O)O", "Activity": "Dose-dependent effect"}
    ]}
  ]
}
